Data reported in patent publication US7342016B2, “Farnesyl protein transferase inhibitors as antitumor agents” (Schering Corporation, priority 2000, dated 2008).
Several values for one entry are separate records, joined by “and”; a condition that tells them apart may be missing. Equal entries are not always repeated.

How the values were obtained:
Experiment in all cases: In vivo anti-tumor study, s.c. tumor in athymic nu/nu female mice, percent inhibition of tumor growth
[1] = tested on: HTB-177 human non small cell lung cancer cells; settings: po, x3
Method: (§1) Various tumor cells (5×10^5 to 8×10^6) were innoculated subcutaneously into the flank of 5-6 week old athymic nu/nu female mice. Three tumor cell models were used: mouse fibroblasts transformed with H-Ras; HTB-177 human non small cell lung cancer cells or LOX human melanoma cells. Animals were treated with beta cyclodextran vehicle only or compounds in vehicle twice a day (BID) or once a day (QD) for 7 days per week for 1 (×1), 2 (×2) or 3 (×3) weeks. The percent inhibition of tumor growth relative to vehicle controls were determined by tumor measurements.

LOX human melanoma cells = settings: po, BID, x1
Method: as §1

[2] = tested on: mouse fibroblasts transformed with H-Ras; settings: po, x2
Method: as §1

With Cc1nccn1CC1=Cc2cccnc2C(N2CCN(C(=O)Nc3ccc(C#N)cc3)CC2)c2ccc(Cl)cc21 (stereo not shown) [(372)] as the compound, how does the “Average % Tumor Inhibition” value ([1]; 20 MPK, BID) read?
Its value is 43% and 47%.

And the “Average % Tumor Inhibition” value ([1]; 40 MPK, BID)?
Its value is 79%.

What about the “Average % Tumor Inhibition” value ([1]; 40 MPK, QD) of the same compound?
The value was 11%.

And the “Average % Tumor Inhibition” value ([1]; 60 MPK, BID)?
The value was 87%.

And the “Average % Tumor Inhibition” value ([1]; 80 MPK, BID)?
The value was 96%.

And the “Average % Tumor Inhibition” value ([1]; 120 MPK, QD)?
Its value is 54%.

What about the “Average % Tumor Inhibition” value (LOX human melanoma cells; 15 MPK) of the same compound?
The value was 20.9%.

And the “Average % Tumor Inhibition” value (LOX human melanoma cells; 30 MPK)?
The value was 54.8%.

And the “Average % Tumor Inhibition” value (LOX human melanoma cells; 60 MPK)?
Its value is 90.3%.

What about the “Average % Tumor Inhibition” value ([2]; 6.6 MPK, BID) of the same compound?
Its value is 19%.

What about the “Average % Tumor Inhibition” value ([2]; 10 MPK, BID) of the same compound?
The value was 70%.

And the “Average % Tumor Inhibition” value ([2]; 20 MPK, BID)?
Its value is 59%.

What about the “Average % Tumor Inhibition” value ([2]; 20 MPK, QD) of the same compound?
Its value is 55%.

What about the “Average % Tumor Inhibition” value ([2]; 40 MPK, BID) of the same compound?
Its value is 92%.

What about the “Average % Tumor Inhibition” value ([2]; 60 MPK, BID) of the same compound?
The value was 98%.

And the “Average % Tumor Inhibition” value ([2]; 80 MPK, QD)?
The value was 91%.
